The source of these data is patent US20260242335A1, “HETEROCYCLOALKYL BETA-HYDROXY ALKYL AMINES FOR USE IN THE TREATMENT OF HYPERGLYCAEMIA AND DISORDERS CHARACTERISED BY HYPERGLYCAEMIA” (ATROGI AB, priority 2023, published 2026).

Counter-ions that a name gives are not always drawn.

In assay [1] the test system is L6-myotubes. Put plainly: Glucose uptake (3H-2-deoxyglucose) in differentiated L6-myotubes, compared to isoproterenol. Format: cell-based. The settings on record: compound at 10 μM vs isoproterenol at 10 μM, read-out: Biological example 1: glucose uptake activity compared to that of isoproterenol. As to the method: (§1) L6-myoblasts were grown in Dulbecco's Modified Eagle's Medium (DMEM) containing 1 g/L glucose supplemented with 10% fetal bovine serum, 2 mM L-Glutamine, 50 U/mL penicillin, […] streptomycin and 10 mM HEPES. Cells were plated at 1×10^5 cells per mL in 24-well plates. After reaching 90% confluence the cells were grown in medium containing 2% FBS for 7 days where upon cells differentiated into myotubes.
Differentiated L6-myotubes were serum-starved overnight in medium containing 0.5% fatty-acid free BSA and stimulated with an agonist, with a final concentration of 1×10^−5 M. After 1 h 40 min the cells were washed with warm glucose free medium or PBS twice and another portion of agonist was added to the glucose free medium. After 20 min the cells were exposed to 50 nM ^3H-2-deoxyglucose for another 10 min before washed in ice cold glucose free medium or PBS three times and lysed in 400 μL/well 0.2 M NaOH for 1 h at 60° C. The cell lysate was mixed with 4 mL scintillation buffer (Emulsifier Safe, Perkin Elmer) and the radioactivity was detected in a p-counter (Tri-Carb 4810TR, Perkin Elmer). The activity for each compound is compared to that of isoproterenol.

For assay [2], the system named is L6-myotubes. Briefly: Measurement of intracellular cAMP levels (alpha screen cAMP kit) in differentiated cells, compared to isoproterenol. It counts as cell-based. The settings on record: 0.25 h, compound at 10 μM vs isoproterenol at 10 μM, 15 min stimulation, read-out: Biological example 2: intracellular cAMP level activity compared to that of isoproterenol. The protocol:
as §1
Differentiated cells were serum-starved overnight and stimulated with an agonist, final concentration 1×10^−5 M, for 15 min in stimulation buffer (HBSS supplemented with 1% BSA, 5 mM HEPES and 1 mM IBMX, pH 7.4). The medium was aspirated and 100 μL of 95% EtOH was added to each well of the 24-well plate and cells were kept at −20° C. overnight. The EtOH was allowed to evaporate and 500 μL of lysis buffer (1% BSA, 5 mM HEPES and 0.3% Tween-20, pH 7.4) was added to each well. The plate was kept at −80° C. for 30 min and then at −20° C. until the day of detection when the samples were thawed. Intracellular cAMP levels were detected using an alpha screen cAMP kit (6760635D from Perkin Elmer). The activity for each compound is compared to that of isoproterenol.

`CC(=O)N1CCC[C@@H](CC(C)(C)NC[C@H](O)c2cccc(C(F)(F)F)n2)C1` [Example 22, 1-((S)-3-(2-(((S)-2-Hydroxy-2-(6-(trifluoromethyl)pyridin-2-yl)ethyl)-amino)-2-methylpropyl)piperidin-1-yl)ethan-1-one dihydrochloride]: the figures for the Emax at 10 µM in assay [1] and in assay [2] were > 75% and < 25%, respectively.
In the same order, the values of `CC(C)(C[C@@H]1CCCN(S(C)(=O)=O)C1)NC[C@H](O)c1cccc(C(F)(F)F)n1` [Example 23, (S)-2-((2-Methyl-1-((S)-1-(methylsulfonyl)piperidin-3-yl)propan-2-yl)-amino)-1-(6-(trifluoromethyl)pyridin-2-yl)ethan-1-ol dihydrochloride] are 50 to 75% and < 25%.
With `CC(C)(C[C@H]1CCCN(S(C)(=O)=O)C1)NC[C@H](O)c1cccc(F)c1` [Example 25, (R)-1-(3-Fluorophenyl)-2-((2-methyl-1-((R)-1-(methylsulfonyl)-piperidin-3-yl)propan-2-yl)amino)ethan-1-ol hydrochloride], the Emax at 10 µM was 25 to 50% in assay [1] and < 25% in assay [2].
Regarding `CC(=O)N1CCC[C@H](CC(C)(C)NC[C@H](O)c2cncc(F)c2)C1` [Example 26, 1-((R)-3-(2-(((R)-2-(5-Fluoropyridin-3-yl)-2-hydroxyethyl)amino)-2-methylpropyl)piperidin-1-yl)ethan-1-one dihydrochloride], the Emax at 10 µM in assay [1] is 50 to 75%; in assay [2], < 25%.
The corresponding values for `CC(C)(C[C@H]1CCCN(S(C)(=O)=O)C1)NC[C@H](O)c1cncc(F)c1` [Example 27, (R)-1-(5-Fluoropyridin-3-yl)-2-((2-methyl-1-((R)-1-(methylsulfonyl)-piperidin-3-yl)propan-2-yl)amino)ethan-1-ol dihydrochloride] are 50 to 75% and < 25%.
In the same order, the values of `CC(C)(CC1CCNCC1)NC[C@H](O)c1cccc(F)c1` [Example 29, (R)-1-(3-Fluorophenyl)-2-((2-methyl-1-(piperidin-4-yl)propan-2-yl)-amino)ethan-1-ol] are > 75% and < 25%.
In the same order, the values of `CC(=O)N1CCC(CC(C)(C)NC[C@H](O)c2cccc(F)c2)CC1` [Example 30, (R)-1-(4-(2-((2-(3-Fluorophenyl)-2-hydroxyethyl)amino)-2-methyl-propyl)piperidin-1-yl)ethan-1-one hydrochloride] are > 75% and < 25%.
On to `CC(C)(CC1CCN(S(C)(=O)=O)CC1)NC[C@H](O)c1cccc(F)c1` [Example 31, (R)-1-(3-Fluorophenyl)-2-((2-methyl-1-(1-(methylsulfonyl)piperidin-4-yl)propan-2-yl)amino)ethan-1-ol hydrochloride], for which the Emax at 10 µM in assay [1] is 50 to 75%; in assay [2], < 25%.
The corresponding values for `CN1CCC(CC(C)(C)NC[C@H](O)c2cccc(F)c2)CC1` [Example 32, (R)-1-(3-Fluorophenyl)-2-((2-methyl-1-(1-methylpiperidin-4-yl)-propan-2-yl)amino)ethan-1-ol dihydrochloride] are 50 to 75% and < 25%.
In the case of `CC(C)(CC1CCN(C(=O)OC(C)(C)C)CC1)NC[C@H](O)c1cncc(F)c1` [Example 33, tert-Butyl (R)-4-(2-((2-(5-fluoropyridin-3-yl)-2-hydroxyethyl)amino)-2-methylpropyl)piperidine-1-carboxylate], the Emax at 10 µM is > 75% in assay [1] and < 25% in assay [2].
In the same order, the values of `CC(=O)N1CCC(CC(C)(C)NC[C@H](O)c2cncc(F)c2)CC1` [Example 34, (R)-1-(4-(2-((2-(5-fluoropyridin-3-yl)-2-hydroxyethyl)amino)-2-methylpropyl)piperidin-1-yl)ethan-1-one dihydrochloride] are 50 to 75% and < 25%.
In the same order, the values of `CC(C)(CC1CCN(S(C)(=O)=O)CC1)NC[C@H](O)c1cncc(F)c1` [Example 35, (R)-1-(5-Fluoropyridin-3-yl)-2-((2-methyl-1-(1-(methylsulfonyl)-piperidin-4-yl)propan-2-yl)amino)ethan-1-ol dihydrochloride] are 50 to 75% and < 25%.
In the same order, the values of `CC(C)(C[C@@H]1CCC(=O)NC1)NC[C@H](O)c1cccc(F)c1` [Example 36, (S)-5-(2-(((R)-2-(3-Fluorophenyl)-2-hydroxyethyl)amino)-2-methyl-propyl)piperidin-2-one hydrochloride] are 50 to 75% and < 25%.
`CC(C)(C[C@@H]1CCC(=O)NC1)NC[C@H](O)c1cncc(F)c1` [Example 37, (S)-5-(2-(((R)-2-(5-Fluoropyridin-3-yl)-2-hydroxyethyl)amino)-2-methylpropyl)piperidin-2-one hydrochloride]: the values for the Emax at 10 µM in assay [1] and in assay [2] were > 75% and < 25%, respectively.
In the same order, the values of `CC(C)(C[C@H]1CCC(=O)NC1)NC[C@H](O)c1cccc(F)c1` [Example 38, (R)-5-(2-(((R)-2-(3-Fluorophenyl)-2-hydroxyethyl)amino)-2-methyl-propyl)piperidin-2-one hydrochloride] are > 75% and < 25%.
The corresponding values for `CC(C)(C[C@H]1CCCN(C(=O)OC(C)(C)C)C1)NC[C@H](O)c1cccc(F)c1` [Example 39, tert-Butyl (R)-3-(2-(((R)-2-(3-fluorophenyl)-2-hydroxyethyl)amino)-2-methylpropyl)piperidine-1-carboxylate] are 50 to 75% and 25 to 50%.
In the same order, the values of `CC(C)(C[C@H]1CCCN(C(=O)OC(C)(C)C)C1)NC[C@H](O)c1cncc(F)c1` [Example 40, tert-Butyl (R)-3-(2-(((R)-2-(5-fluoropyridin-3-yl)-2-hydroxyethyl)-amino)-2-methylpropyl)piperidine-1-carboxylate] are > 75% and < 25%.
`CC(C)(CC1CCN(C(=O)C(C)(C)C)CC1)NC[C@H](O)c1cccc(F)c1` [Example 41, (R)-1-(4-(2-((2-(3-Fluorophenyl)-2-hydroxyethyl)amino)-2-methyl-propyl)piperidin-1-yl)-2,2-dimethylpropan-1-one]: the figures for the Emax at 10 µM in assay [1] and in assay [2] were 25 to 50% and < 25%, respectively.
In the case of `CC(C)(CC1CCN(C(=O)C(F)(F)F)CC1)NC[C@H](O)c1cccc(F)c1` [Example 42, (R)-2,2,2-Trifluoro-1-(4-(2-((2-(3-fluorophenyl)-2-hydroxyethyl)-amino)-2-methylpropyl)piperidin-1-yl)ethan-1-one], the results for the Emax at 10 µM in assay [1] and in assay [2] were 25 to 50% and < 25%, respectively.
The corresponding values for `COC(=O)N1CCC(CC(C)(C)NC[C@H](O)c2cccc(F)c2)CC1` [Example 43, Methyl (R)-4-(2-((2-(3-fluorophenyl)-2-hydroxyethyl)amino)-2-methyl-propyl)piperidine-1-carboxylate] are 50 to 75% and < 25%.
The corresponding values for `CN(C)C(=O)N1CCC(CC(C)(C)NC[C@H](O)c2cccc(F)c2)CC1` [Example 44, (R)-4-(2-((2-(3-Fluorophenyl)-2-hydroxyethyl)amino)-2-methyl-propyl)-N,N-dimethylpiperidine-1-carboxamide hydrochloride] are > 75% and 50 to 75%.
In the same order, the values of `CNC(=O)N1CCC(CC(C)(C)NC[C@H](O)c2cccc(F)c2)CC1` [Example 45, (R)-4-(2-((2-(3-Fluorophenyl)-2-hydroxyethyl)amino)-2-methyl-propyl)-N-methylpiperidine-1-carboxamide] are 50 to 75% and < 25%.
On to `CC(C)(CC1CCNCC1)NC[C@H](O)c1cncc(F)c1` [Example 46, (R)-1-(5-Fluoropyridin-3-yl)-2-((2-methyl-1-(piperidin-4-yl)propan-2-yl)amino)ethan-1-ol], for which the Emax at 10 µM was 50 to 75% in assay [1] and < 25% in assay [2].
The corresponding values for `CC(C)(CC1CCN(C(=O)C(C)(C)C)CC1)NC[C@H](O)c1cncc(F)c1` [Example 47, (R)-1-(4-(2-((2-(5-Fluoropyridin-3-yl)-2-hydroxyethyl)amino)-2-methylpropyl)piperidin-1-yl)-2,2-dimethylpropan-1-one dihydrochloride] are 50 to 75% and < 25%.
